Measured values published in PubChem BioAssay AID1963436 (Molecular Pharmacology Branch, DTP, NCI, 2024).

System: OVCAR-5 complex spheroid (HUVEC/MSC), viability % T/C
Assay: Anticancer human tumor OVCAR-5 cell line growth inhibition [Asc];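 note: spheroids exposed to agents for 7 days before readout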;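 for viability, T/C: 100% = DMSO vehicle-treated wells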
Details: for IC50: curve of first compound; for viability, T/C: stronger effect = lower value
Procedure: Multicellular complex tumor spheroid response to apoptosis pathway targeting inhibitors Alrizomadlin, Pelcitoclax, and Dasminapant in combination with a variety of drugs and investigational agents in selected tumor cell lines
The MDM2 inhibitor alrizomadlin, the Bcl-2/Bcl-xL inhibitor pelcitoclax, and the IAPs inhibitor dasminapant were evaluated both individually and in combination with standard of care and investigational anticancer small molecules within a complex spheroid model of solid tumors. . Complex spheroids include a stromal component modeled by human endothelial cells (HUVEC) and fibroblasts modeled by human mesenchymal stem cells (MSCs). The concentration ranges selected for each drug and investigational agent were based upon clinically achievable concentrations if the clinical Cmax of the agent was known.
Compounds. The drugs and investigational agents: alrizomadlin (APG-115; NSC831270), pelcitoclax (APG-1252; NSC835773), dasminapant (APG-1387;NSC834197), TAK-243 (NSC785004), copanlisib (NSC809693), olaparib (NSC753686), talazoparib (NSC767125), cobimetinib (NSC 768068), eltanexor (KPT-8602, NSC 794443), abemaciclib (NSC 768073), sotorasib (NSC818433), adagrasib (NSC 831453), MRTX-1133 (NSC 836407), Iadademestat (ORY1001, NSC 806812), and RMC-4630 (NSC839698), were obtained from the NCI Developmental Therapeutics Program Chemical Repository. The FDA-approved anticancer drug set is available from the Developmental Therapeutics Program at https://dtp.cancer.gov/organization/dscb/obtaining/available plates.htm. […] The stock solutions were prepared in dimethyl sulfoxide (DMSO, Sigma-Aldrich, St. Louis, MO, cat. D2650) at 800-fold the tested concentration and stored at -70 degrees C prior to their use. All drugs and investigational agents were tested over a range starting from a high concentration at or near the clinical Cmax and decreasing in half-log increments. If the clinical Cmax for an agent had not been determined, the highest concentration tested was 10 microM.
The patient-derived cancer (PDC) cell lines include five colon adenocarcinomas: 186277-243-T-J2-PDC, 616215-338-R-J1-PDC, 439559-082-T-J2-PDC, 463943-066-T-J2-PDC, and 519858-162-T-J1-PDC; three pancreatic carcinomas: 323965-272-R-J2-PDC, 521955-158-R6-J3-PDC, and 521955-158-R2-J5-PDC; two uterine sarcomas: 327498-152-R-J2-PDC and 993429-296-R-J1-PDC; two rhabdomyosarcomas: 755483-174-R-J1-PDC and 772245-204-R-J1-PDC; two soft tissue sarcomas: 126254-015-R-J1-PDC and 494315-158-R-J1-PDC; two malignant fibrous histiocytomas: 317291-083-R-J1-PDC and 596521-263-R-J1-PDC; two breast carcinomas: 171881-019-R-J1-PDC and 885512-296-R-J2-PDC; and one ovarian carcinoma: 6556581-035-R-J-PDC were obtained from the NCI PDMR, (https://pdmr.cancer.gov). The established cell lines HSSY-2 synovial sarcoma (RRID:CVCL 8719), SYO-1 synovial sarcoma (RRID:CVCL_7146), MPNST malignant peripheral neural sheath tumor were obtained from the Sloan Kettering Institute. The following established cell lines were purchased from the American Type Culture Collection (ATCC, Manassas, VA), Sor the received from the NCI repository:, PANC-1 pancreatic carcinoma (CRL-1469, RRID:CVCL_0480), OVCAR-5 ovarian carcinoma (RRID:CVCL_1628), OVCAR-8 ovarian carcinoma (RRID:CVCL_1629), , MCF-7 breast carcinoma (CRL-12584, RRID:CVCL_0031), MDA-MB-231 breast carcinoma (CRL-12532, RRID:CVCL_0062), NCI-H1876 small cell lung carcinoma (CRL-5902, RRID:CVCL_1503), NCI-H510A small cell lung carcinoma (HTB-184, RRID:CVCL_1565), NCI-H1417 (CRL-5869, RRID:CVCL_1469), and NCI-H196 small cell lung carcinoma (CRL-5823, RRID:CVCL_1509). Dr. Peter Houghton (Greehey Children's Cancer Research Institute, University of Texas Health Science Center, San Antonio, TX) provided Rh-18 rhabdomyosarcoma (RRID:CVCL_1659). Pooled donor human umbilical vein endothelial cells (HUVEC, Lonza, cat. CC-2519) and human mesenchymal stem cells (hMSC, Lonza, cat. PT-2501) were purchased from Lonza (Walkersville, MD).
Cell Culture. […]

CCN1CCN(Cc2ccc(Nc3ncc(F)c(-c4cc(F)c5nc(C)n(C(C)C)c5c4)n3)nc2)CC1 + CCN1C(C(=O)NC23CCC(C(=O)O)(CC2)CC3)C(c2cccc(Cl)c2F)C2(C(=O)Nc3cc(Cl)ccc32)C12CCCCC2
IC50 (second compound 0.03 µM): > 1000 nM
IC50 (second compound 0.0949 µM): > 1000 nM
IC50 (second compound 0.3 µM): > 1000 nM
IC50 (second compound 0.949 µM): > 1000 nM
IC50 (second compound 3 µM): > 1000 nM
viability, T/C (second compound 0.03 µM, first compound 0.00316 µM): 85.1%
viability, T/C (second compound 0.03 µM, first compound 0.01 µM): 93.5%
viability, T/C (second compound 0.03 µM, first compound 0.0316 µM): 68.1%
viability, T/C (second compound 0.03 µM, first compound 0.1 µM): 64.7%
viability, T/C (second compound 0.03 µM, first compound 0.316 µM): 65.4%
viability, T/C (second compound 0.03 µM, first compound 1 µM): 56.5%
viability, T/C (second compound 0.0949 µM, first compound 0.00316 µM): 98.2%
viability, T/C (second compound 0.0949 µM, first compound 0.01 µM): 91.8%
viability, T/C (second compound 0.0949 µM, first compound 0.0316 µM): 67.2%
viability, T/C (second compound 0.0949 µM, first compound 0.1 µM): 66.1%
viability, T/C (second compound 0.0949 µM, first compound 0.316 µM): 61%
viability, T/C (second compound 0.0949 µM, first compound 1 µM): 62.8%
viability, T/C (second compound 0.3 µM, first compound 0.00316 µM): 102%
viability, T/C (second compound 0.3 µM, first compound 0.01 µM): 86.5%
viability, T/C (second compound 0.3 µM, first compound 0.0316 µM): 77.7%
viability, T/C (second compound 0.3 µM, first compound 0.1 µM): 59.9%
viability, T/C (second compound 0.3 µM, first compound 0.316 µM): 68.3%
viability, T/C (second compound 0.3 µM, first compound 1 µM): 62.4%
viability, T/C (second compound 0.949 µM, first compound 0.00316 µM): 85.9%
viability, T/C (second compound 0.949 µM, first compound 0.01 µM): 92.3%
viability, T/C (second compound 0.949 µM, first compound 0.0316 µM): 74.2%
viability, T/C (second compound 0.949 µM, first compound 0.1 µM): 65.1%
viability, T/C (second compound 0.949 µM, first compound 0.316 µM): 69.1%
viability, T/C (second compound 0.949 µM, first compound 1 µM): 62.4%
viability, T/C (second compound 3 µM, first compound 0.00316 µM): 106%
viability, T/C (second compound 3 µM, first compound 0.01 µM): 99.1%
viability, T/C (second compound 3 µM, first compound 0.0316 µM): 85.4%
viability, T/C (second compound 3 µM, first compound 0.1 µM): 65.6%
viability, T/C (second compound 3 µM, first compound 0.316 µM): 65.5%
viability, T/C (second compound 3 µM, first compound 1 µM): 64.2%
